Assay results taken from ChEMBL document CHEMBL3885881, “DrugMatrix”.

Species on record: Rattus norvegicus
Experiment: DrugMatrix - Regimen: Daily Repeat
Type: toxicity, organism-based, Sprague-Dawley
Parameters: regimen Daily Repeat, gender Male, age 6-8 weeks
Conditions: in vivo, po, route oral GAVAGE; for ABSOLUTE BASOPHIL / ABSOLUTE EOSINOPHIL / ABSOLUTE LYMPHOCYTE / ABSOLUTE MONOCYTE / ABSOLUTE SEGMENTED NEUTROPHIL / BASOPHIL / EOSINOPHIL / ERYTHROCYTE COUNT / HEMATOCRIT / HEMOGLOBIN / LEUKOCYTE COUNT / LYMPHOCYTE / MEAN CORPUSCULAR HEMOGLOBIN / MEAN CORPUSCULAR HEMOGLOBIN CONCENTRATION / MEAN CORPUSCULAR VOLUME / MONOCYTE / NEUTROPHIL / NUCLEATED RED BLOOD CELLS / PLATELET COUNT: tissue Blood; for ALANINE AMINOTRANSFERASE / ALBUMIN / ALKALINE PHOSPHATASE / ASPARTATE AMINOTRANSFERASE / BLOOD UREA NITROGEN / CARBON DIOXIDE / CHLORIDE / CHOLESTEROL / CREATINE PHOSPHOKINASE / CREATININE / GLUCOSE / LACTATE DEHYDROGENASE / LIPASE / PHOSPHORUS / POTASSIUM / SODIUM / TOTAL BILIRUBIN / TOTAL PROTEIN / URIC ACID: tissue Plasma
[1] = 2500 mg/kg, 72 h, dose level High, time 3 day, vehicle 100 % WATER
[2] = 2500 mg/kg, 120 h, dose level High, time 5 day, vehicle 100 % WATER
[3] = 85 mg/kg, 72 h, dose level Low, time 3 day, vehicle .5 % CMC
[4] = 85 mg/kg, 120 h, dose level Low, time 5 day, vehicle .5 % CMC

SMILES: CCN(CC)CCOC(=O)c1ccc(N)cc1 [PROCAINE]
- ABSOLUTE BASOPHIL [1]: 0 CELLS/uL
- ABSOLUTE EOSINOPHIL [1]: 0 CELLS/uL
- ABSOLUTE LYMPHOCYTE [1]: 12849.67 CELLS/uL
- ABSOLUTE MONOCYTE [1]: 127.33 CELLS/uL
- ABSOLUTE SEGMENTED NEUTROPHIL [1]: 789.67 CELLS/uL
- BASOPHIL [1]: 0%
- EOSINOPHIL [1]: 0%
- ERYTHROCYTE COUNT [1]: 5.53 x10E6/uL
- HEMATOCRIT [1]: 34.97%
- HEMOGLOBIN [1]: 13.83 G/DL
- LEUKOCYTE COUNT [1]: 13.77 x10E3/uL
- LYMPHOCYTE [1]: 93.33%
- MEAN CORPUSCULAR HEMOGLOBIN [1]: 24.97 pg
- MEAN CORPUSCULAR HEMOGLOBIN CONCENTRATION [1]: 39.63 G/DL
- MEAN CORPUSCULAR VOLUME [1]: 63.1 fL
- MONOCYTE [1]: 1%
- NEUTROPHIL [1]: 5.67%
- NUCLEATED RED BLOOD CELLS [1]: 0 /100WBC
- PLATELET COUNT [1]: 1276.67 x10E3/uL
- ALANINE AMINOTRANSFERASE [1]: 52.33 u/L
- ALBUMIN [1]: 4.3 G/DL
- ALKALINE PHOSPHATASE [1]: 353.67 u/L
- ASPARTATE AMINOTRANSFERASE [1]: 121.67 u/L
- BLOOD UREA NITROGEN [1]: 13.67 mg/dL
- CARBON DIOXIDE [1]: 25.33 mmol/L
- CHLORIDE [1]: 103.33 MEQ/L
- CHOLESTEROL [1]: 42.33 mg/dL
- CREATINE PHOSPHOKINASE [1]: 550.67 u/L
- CREATININE [1]: 0.21 mg/dL
- GLUCOSE [1]: 173 mg/dL
- LACTATE DEHYDROGENASE [1]: 675.33 u/L
- LIPASE [1]: 9 u/L
- PHOSPHORUS [1]: 14.53 mg/dL
- POTASSIUM [1]: 7.06 MEQ/L
- SODIUM [1]: 146.03 MEQ/L
- TOTAL BILIRUBIN [1]: 0.17 mg/dL
- TOTAL PROTEIN [1]: 5.9 G/DL
- URIC ACID [1]: 2.57 mg/dL
- ABSOLUTE BASOPHIL [2]: 0 CELLS/uL
- ABSOLUTE EOSINOPHIL [2]: 0 CELLS/uL
- ABSOLUTE LYMPHOCYTE [2]: 14457.33 CELLS/uL
- ABSOLUTE MONOCYTE [2]: 61 CELLS/uL
- ABSOLUTE SEGMENTED NEUTROPHIL [2]: 915 CELLS/uL
- BASOPHIL [2]: 0%
- EOSINOPHIL [2]: 0%
- ERYTHROCYTE COUNT [2]: 6.15 x10E6/uL
- HEMATOCRIT [2]: 37.43%
- HEMOGLOBIN [2]: 14.7 G/DL
- LEUKOCYTE COUNT [2]: 15.43 x10E3/uL
- LYMPHOCYTE [2]: 93.33%
- MEAN CORPUSCULAR HEMOGLOBIN [2]: 23.93 pg
- MEAN CORPUSCULAR HEMOGLOBIN CONCENTRATION [2]: 39.3 G/DL
- MEAN CORPUSCULAR VOLUME [2]: 60.87 fL
- MONOCYTE [2]: 0.33%
- NEUTROPHIL [2]: 6.33%
- NUCLEATED RED BLOOD CELLS [2]: 0 /100WBC
- PLATELET COUNT [2]: 1379 x10E3/uL
- ALANINE AMINOTRANSFERASE [2]: 40 u/L
- ALBUMIN [2]: 4.73 G/DL
- ALKALINE PHOSPHATASE [2]: 323.33 u/L
- ASPARTATE AMINOTRANSFERASE [2]: 94 u/L
- BLOOD UREA NITROGEN [2]: 17 mg/dL
- CARBON DIOXIDE [2]: 26 mmol/L
- CHLORIDE [2]: 101.67 MEQ/L
- CHOLESTEROL [2]: 33.67 mg/dL
- CREATINE PHOSPHOKINASE [2]: 281 u/L
- CREATININE [2]: 0.24 mg/dL
- GLUCOSE [2]: 166.67 mg/dL
- LACTATE DEHYDROGENASE [2]: 198.33 u/L
- LIPASE [2]: 9.67 u/L
- PHOSPHORUS [2]: 12.67 mg/dL
- POTASSIUM [2]: 7.55 MEQ/L
- SODIUM [2]: 143.33 MEQ/L
- TOTAL BILIRUBIN [2]: 0.2 mg/dL
- TOTAL PROTEIN [2]: 6.67 G/DL
- URIC ACID [2]: 2 mg/dL

SMILES: CCCN(CCC)C(=O)C(CCC(=O)O)NC(=O)c1ccccc1 (configuration not stated) [PROGLUMIDE]
- ABSOLUTE BASOPHIL [3]: 0 CELLS/uL
- ABSOLUTE EOSINOPHIL [3]: 331.33 CELLS/uL
- ABSOLUTE LYMPHOCYTE [3]: 13210.67 CELLS/uL
- ABSOLUTE MONOCYTE [3]: 258 CELLS/uL
- ABSOLUTE SEGMENTED NEUTROPHIL [3]: 933.33 CELLS/uL
- BASOPHIL [3]: 0%
- EOSINOPHIL [3]: 2.33%
- ERYTHROCYTE COUNT [3]: 5.4 x10E6/uL
- HEMATOCRIT [3]: 34.93%
- HEMOGLOBIN [3]: 13.17 G/DL
- LEUKOCYTE COUNT [3]: 14.73 x10E3/uL
- LYMPHOCYTE [3]: 89.67%
- MEAN CORPUSCULAR HEMOGLOBIN [3]: 24.43 pg
- MEAN CORPUSCULAR HEMOGLOBIN CONCENTRATION [3]: 37.7 G/DL
- MEAN CORPUSCULAR VOLUME [3]: 64.7 fL
- MONOCYTE [3]: 1.67%
- NEUTROPHIL [3]: 6.33%
- NUCLEATED RED BLOOD CELLS [3]: 0.33 /100WBC
- PLATELET COUNT [3]: 1332 x10E3/uL
- ALANINE AMINOTRANSFERASE [3]: 42.67 u/L
- ALBUMIN [3]: 4.33 G/DL
- ALKALINE PHOSPHATASE [3]: 435.67 u/L
- ASPARTATE AMINOTRANSFERASE [3]: 72.33 u/L
- BLOOD UREA NITROGEN [3]: 16 mg/dL
- CARBON DIOXIDE [3]: 25.33 mmol/L
- CHLORIDE [3]: 104.33 MEQ/L
- CHOLESTEROL [3]: 60.67 mg/dL
- CREATINE PHOSPHOKINASE [3]: 288 u/L
- CREATININE [3]: 0.18 mg/dL
- GLUCOSE [3]: 161.67 mg/dL
- LACTATE DEHYDROGENASE [3]: 90.33 u/L
- LIPASE [3]: 9 u/L
- PHOSPHORUS [3]: 13.33 mg/dL
- POTASSIUM [3]: 6.41 MEQ/L
- SODIUM [3]: 144.2 MEQ/L
- TOTAL BILIRUBIN [3]: 0.23 mg/dL
- TOTAL PROTEIN [3]: 5.93 G/DL
- URIC ACID [3]: 1.67 mg/dL
- ABSOLUTE BASOPHIL [4]: 0 CELLS/uL
- ABSOLUTE EOSINOPHIL [4]: 53.33 CELLS/uL
- ABSOLUTE LYMPHOCYTE [4]: 15727.33 CELLS/uL
- ABSOLUTE MONOCYTE [4]: 190.67 CELLS/uL
- ABSOLUTE SEGMENTED NEUTROPHIL [4]: 1162 CELLS/uL
- BASOPHIL [4]: 0%
- EOSINOPHIL [4]: 0.33%
- ERYTHROCYTE COUNT [4]: 5.46 x10E6/uL
- HEMATOCRIT [4]: 35.63%
- HEMOGLOBIN [4]: 13.3 G/DL
- LEUKOCYTE COUNT [4]: 17.13 x10E3/uL
- LYMPHOCYTE [4]: 92%
- MEAN CORPUSCULAR HEMOGLOBIN [4]: 24.37 pg
- MEAN CORPUSCULAR HEMOGLOBIN CONCENTRATION [4]: 37.4 G/DL
- MEAN CORPUSCULAR VOLUME [4]: 65.13 fL
- MONOCYTE [4]: 1%
- NEUTROPHIL [4]: 6.67%
- NUCLEATED RED BLOOD CELLS [4]: 0 /100WBC
- PLATELET COUNT [4]: 1361 x10E3/uL
- ALANINE AMINOTRANSFERASE [4]: 50.67 u/L
- ALBUMIN [4]: 4 G/DL
- ALKALINE PHOSPHATASE [4]: 346.33 u/L
- ASPARTATE AMINOTRANSFERASE [4]: 79 u/L
- BLOOD UREA NITROGEN [4]: 17 mg/dL
- CARBON DIOXIDE [4]: 24.67 mmol/L
- CHLORIDE [4]: 108 MEQ/L
- CHOLESTEROL [4]: 61.67 mg/dL
- CREATINE PHOSPHOKINASE [4]: 409.67 u/L
- CREATININE [4]: 0.19 mg/dL
- GLUCOSE [4]: 187 mg/dL
- LACTATE DEHYDROGENASE [4]: 92.33 u/L
- LIPASE [4]: 8 u/L
- PHOSPHORUS [4]: 13.57 mg/dL
- POTASSIUM [4]: 5.82 MEQ/L
- SODIUM [4]: 144.9 MEQ/L
- TOTAL BILIRUBIN [4]: 0.27 mg/dL
- TOTAL PROTEIN [4]: 6.03 G/DL
- URIC ACID [4]: 1.67 mg/dL
